Measurements reported in patent publication EP0431972A2, “Macrocyclic lactones having renin inhibiting properties” (MERCK & CO. INC., priority 1989, dated 1991).
pIC50: −log10 of the molar value. Square brackets hold non-standard residues; d marks the D form. Peptide text beside a SMILES is read from it. * marks the point of attachment. Sta = CC(C)C[C@H](N)[C@@H](O)CC(=O)O; Isovaleryl = CC(C)CC(=O)*

Legend:
human plasma renin = human plasma renin IC50 determination; type: biochemical; conditions: against human plasma renin, pH 7.4
Procedure: The following method was used for in vitro evaluation of the renin inhibitors of Formuta t: • The human plasma renin IC50 values for inhibitors of Formula I were determined at pH 7.4 following the procedure described in J. Boger, L.S. Payne, D.S. Perlow, N.S. Lohr, M. Poe, E.H. Blaine, E.H. Elm, T.W. Schorn, B.I. Lamont, T.-Y. Lin, M. Kawai, D.H. Rich and D.F. Veber, J. Med. Chem., 28, 1779 (1985).

[1] = tested on: conscious sodium-deficient Rhesus monkeys; experiment: intravenous evaluation of renin inhibitors in conscious sodium-deficient Rhesus monkeys (blood pressure lowering); type: in vivo; conditions: i.v. bolus injection
Description: The following methods were used for in vivo evaluation of the renin inhibitors of Formua I : Intravenous evaluation of renin inhibitors in conscious sodium-deficient Rhesus monkeys : Rhesus monkeys, male and female, weighing 2.6-4.5 Kg, were surgically prepared with chronic arterial and venous catheters and vascular access ports for direct monitoring of mean arterial pressure (MAPI) and heart rate (HR). The animals were maintained on a low sodium diet (1.2 mmol Nalday) plus fruit for a week, and administered LASIX (furosemide) at 2.5 mg/Kg, intramuscularly the evening prior to the experiment The animals had been trained to sit quietly in the chairs with waterAD LIBIUM for the duration of the experiment. The inhibitors were administered by bolus injection using 0.5% acetic acid-5% dextrose in water as the vehicle (0.4 ml/Kg), and MAP and HRwere measured. Blood samples were withdrawn at different time intervals beginning at the nadir of hypotensive response. PRA was determined as described above. […] A projected ED50 dose for each inhibitorwas calculated using the following formula: ED50 (Test Inhibitor, umoles/Kg) = ED50 (SCRIP) X [IC50 (Test Inhibitor)/IC50 (SCRIP)], where the IC50 values were determined against human plasma renin. […] Percent inhibition of monkey PRA, changes in MAP and HR were calculated and plotted against time. […]

## CC(C)CC(=O)N[C@@H](Cc1c[nH]cn1)C(=O)N1CCC[C@H]1C(=O)N[C@@H](Cc1ccccc1)C(=O)N[C@@H](Cc1c[nH]cn1)C(=O)N[C@@H](CC(C)C)[C@@H](O)CC(=O)N[C@@H](CC(C)C)C(=O)N[C@@H](Cc1ccccc1)C(N)=O [SCRIP, Iva-His-Pro-Phe-His-Sta-Leu-Phe-NH2] (Isovaleryl-HPFH[Sta]LF-NH2)
Human plasma renin
  pIC50: 8.43
[1]
  i.v. dose of the standard inhibitor required to lower blood pressure by 50% of the maximal response (ED50): 0.039 µmol/kg
